Assay results as given in ChEMBL document CHEMBL4396942, “19-Hydroxyeicosatetraenoic acid analogs: Antagonism of 20-hydroxyeicosatetraenoic acid-induced vascular sensitization and hypertension” (Bioorg Med Chem Lett, 2019).
Activity calls are given as the source filed them. The rule behind the calls is not given here.

Experiments:
[1] = Vasodilating activity in rat renal preglomerular microvessels assessed as effect on 20-HETE induced sensitization toward phenylephrine at 1 uM relative to 20-HETE; format: functional
[2] = Solubility of compound in water; format: physicochemical
Mus musculus = assay: Reversal of androgen-driven 20-HETE-induced hypertension in Cyp4a14(-/-) mouse assessed as reduction in systolic blood pressure at 10 mg/kg, ip daily and measured for 10 days; format: functional, organism-based
Rattus norvegicus [3] = species on record: Rattus norvegicus; assay: Vasodilating activity in rat gracilis muscle arteriole assessed as change in internal diameter; format: functional
Rattus norvegicus [4] = species on record: Rattus norvegicus; assay: Vasodilating activity in rat gracilis muscle arteriole assessed as inhibition of 20-HETE induced change in internal diameter; format: functional

SMILES | fold change (FC) [1] | further results
C[C@@H](O)CCC/C=C\CCCCCCC/C=C\CCCC(=O)[O-].[Na+] | -0.85 | solubility [2]: 250 µg/mL
CC(O)CCCC/C=C\CCCCCCC/C=C\CCCC(=O)NCC(=O)[O-].[Na+] (centres undefined) | 0.58 | 
C[C@H](O)CCC/C=C\CCCCCCC/C=C\CCCC(=O)N[C@@H](CC(=O)[O-])C(=O)[O-].[Na+].[Na+] | -0.59 | 
CC(O)CCC/C=C\CCCCCCC/C=C\CCCc1nnn[nH]1 (centres undefined) | -0.78 | 
C[C@H](O)CCC/C=C\CCCCCCC/C=C\CCCC(=O)NCC(=O)[O-].[Na+] |  | solubility [2]: 500 µg/mL
O=C([O-])CNC(=O)CCC/C=C\CCCCCCC/C=C\CCCCO.[Na+] | -0.74 | 
C[C@@H](O)CCC/C=C\CCCCCCC/C=C\CCCC(=O)N[C@@H](CC(=O)O)C(=O)O |  | Activity (Mus musculus): Active; Activity (Rattus norvegicus [3]): inactive; Activity (Rattus norvegicus [4]): Dose-dependent effect
[N-]=[N+]=N[C@@H](CO)CCC/C=C\CCCCCCC/C=C\CCCC(=O)[O-].[Na+] | 0.5 | 
CC(O)CCC/C=C\CCCCCCCCCCCCC(=O)[O-].[Na+] (centres undefined) | -0.79 | 
CC(O)CCCCCCCCCCCC/C=C\CCCC(=O)[O-].[Na+] (centres undefined) | -0.66 | 
O=C([O-])CCC/C=C\CCCCCCC/C=C\CCCCO.[Na+] | -0.68 | 
C[C@@H](O)CCC/C=C\CCCCCCC/C=C\CCCC(=O)NCC(=O)[O-].[Na+] | -4.47 | solubility [2]: 500 µg/mL
C[C@H](O)CCC/C=C\CCCCCCC/C=C\CCCC(=O)[O-].[Na+] | -0.68 | solubility [2]: 250 µg/mL
[N-]=[N+]=N[C@H](CO)CCC/C=C\CCCCCCC/C=C\CCCC(=O)[O-].[Na+] | 0.16 | 
